Laboratory results taken from the NIST ThermoML archive (doi:10.1021/je800920d).
± gives the expanded uncertainty stated by the source.

Legend:
[1] = Crystal; DTA
[2] = Molar enthalpy of transition or fusion; details: Crystal; DSC

Normal melting temperature [1]: 154.6 ± 0.5 °C
Molar enthalpy of transition or fusion [2]: 7.5 ± 0.215 kcal/mol
SMILES: COc1ccc2cc([C@H](C)C(=O)O)ccc2c1 [(S)-(+)-naproxen]
